The NIST ThermoML archive (doi:10.1016/j.jct.2016.12.015)

Conditions: 101.33 kPa, Crystal, Small (less than 1 g) adiabatic calorimetry

C[C@H]1C[C@@H]2[C@H]([C@@H](O)C[C@@]3(C)[C@H]2CC[C@]3(O)C(=O)CO)[C@@]2(C)C=CC(=O)C=C12 [Methylprednisolone]
Conditions | molar entropy [J/K/mol]
5 K | 0.328
10 K | 2.37
15 K | 6.133
20 K | 11.27
25 K | 17.53
30 K | 24.43
35 K | 31.67
40 K | 39.13
45 K | 46.76
50 K | 54.53
60 K | 70.39
70 K | 86.6
80 K | 103
90 K | 119.5
100 K | 136.1
110 K | 152.7
120 K | 169.2
130 K | 185.7
140 K | 202.1
150 K | 218.5
160 K | 234.8
170 K | 251
180 K | 267.2
190 K | 283.3
200 K | 299.3
210 K | 315.3
220 K | 331.3
230 K | 347.2
240 K | 363.1
250 K | 379
260 K | 394.8
270 K | 410.6
280 K | 426.4
290 K | 442.3
298.15 K | 455.2
300 K | 458.1
310 K | 473.9
320 K | 489.8
330 K | 505.6
340 K | 521.4
350 K | 537.3
